Reference: ChEMBL document CHEMBL1201862, “PubChem BioAssay data set” (2004)
The source made the active and inactive calls.

Columns and labels:
[1] = target: Disintegrin and metalloproteinase domain-containing protein 17 (Homo sapiens, UniProt P78536); test: exosite inhibitors of ADAM17, dose response, biochemical (AID 743260)
[2] = ADAM10 protease inhibitors, dose response, selectivity assay for ADAM17 exosite inhibitor project, biochemical, FRET peptide substrate, recombinant human ADAM10 (AID 743259);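 also: ADAM10 enzyme cleaving a FRET peptide substrate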
[3] = miR-122 activators in hepatoma reporter cells, dose response, cell-based, Huh7 psiCHECK-miR122, Renilla luciferase, cherry-picked (AID 651956); type: functional;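 also: huh7 hepatoma cells stably carrying a psiCHECK-2 miR-122 sensor plasmid; renilla luciferase signal reporting endogenous miR-122 activity after 48 h compound exposure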
Paired box protein Pax-8 = Paired box protein Pax-8 (Homo sapiens, UniProt Q06710); test: inhibitors of PAX8-driven TPO luciferase reporter, dose response, RMG-I cells, cherry-pick (AID 687027); type: functional, cell-based;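 also: luciferase reporter driven by Pax8 target thyroperoxidase promoter measured by SteadyGlo luminescence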
[4] = HEK293T cytotoxicity, dose response, cytotoxicity control for miR-122 modulator project, cell-based, inhibitor set, cherry-pick, set 2 (AID 720697); type: functional
HeLa = test: HeLa cell cytotoxicity, dose response, cytotoxicity control, ATP luminescence, cherry-pick samples (AID 687004); type: functional, cell-based; settings: Homo sapiens
[5] = P. falciparum Dd2 growth inhibitors, dose response, SYBR Green, cherry-picked samples (AID 1159567); type: functional, cell-based
[6] = A375 melanoma cell viability loss, dose response, counter-screen for MITF inhibitor project, CellTiter-Glo luminescence, dry powder, set 4 (AID 624364); type: functional, cell-based; settings: A-375;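 also: A375 melanoma cells are MITF independent so this is a counter screen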
[7] = A375 melanoma cell cytotoxicity, dose response, counter-screen for MITF inhibitor project, CellTiter-Glo luminescence, dry powder, set 2 (AID 624489); type: functional, cell-based; settings: A-375;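 also: actives are compounds lowering A375 viability meaning general cytotoxicity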
[8] = target: T1, RNA-editing ligase 1, mitochondrial (Trypanosoma brucei brucei, UniProt P86926); test: TbREL1 ligase inhibitors, dose response, biochemical, fluorescence, Trypanosoma brucei (AID 1117295); type: functional
T1 sequence (P86926 whole entry): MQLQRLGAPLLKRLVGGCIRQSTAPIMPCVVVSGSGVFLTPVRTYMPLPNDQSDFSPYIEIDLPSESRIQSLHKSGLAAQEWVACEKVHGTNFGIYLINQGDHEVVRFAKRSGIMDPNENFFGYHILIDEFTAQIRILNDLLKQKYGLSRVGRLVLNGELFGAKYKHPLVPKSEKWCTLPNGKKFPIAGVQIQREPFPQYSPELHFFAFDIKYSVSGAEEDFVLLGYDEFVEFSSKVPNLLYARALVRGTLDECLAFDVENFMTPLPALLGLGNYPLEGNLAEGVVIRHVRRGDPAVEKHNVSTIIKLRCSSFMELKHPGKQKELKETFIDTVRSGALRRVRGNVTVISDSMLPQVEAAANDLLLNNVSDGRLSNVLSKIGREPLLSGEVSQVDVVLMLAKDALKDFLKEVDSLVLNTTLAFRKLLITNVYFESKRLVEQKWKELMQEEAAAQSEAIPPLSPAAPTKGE

[9] = Glucagon-like peptide 1 release potency, NCI-H716 cell line, dose-response, half-maximal inhibitory concentration (AID 1117344); type: functional, cell-based

Chain of Disintegrin and metalloproteinase domain-containing protein 17 (P78536 whole entry, the tested form may be a part): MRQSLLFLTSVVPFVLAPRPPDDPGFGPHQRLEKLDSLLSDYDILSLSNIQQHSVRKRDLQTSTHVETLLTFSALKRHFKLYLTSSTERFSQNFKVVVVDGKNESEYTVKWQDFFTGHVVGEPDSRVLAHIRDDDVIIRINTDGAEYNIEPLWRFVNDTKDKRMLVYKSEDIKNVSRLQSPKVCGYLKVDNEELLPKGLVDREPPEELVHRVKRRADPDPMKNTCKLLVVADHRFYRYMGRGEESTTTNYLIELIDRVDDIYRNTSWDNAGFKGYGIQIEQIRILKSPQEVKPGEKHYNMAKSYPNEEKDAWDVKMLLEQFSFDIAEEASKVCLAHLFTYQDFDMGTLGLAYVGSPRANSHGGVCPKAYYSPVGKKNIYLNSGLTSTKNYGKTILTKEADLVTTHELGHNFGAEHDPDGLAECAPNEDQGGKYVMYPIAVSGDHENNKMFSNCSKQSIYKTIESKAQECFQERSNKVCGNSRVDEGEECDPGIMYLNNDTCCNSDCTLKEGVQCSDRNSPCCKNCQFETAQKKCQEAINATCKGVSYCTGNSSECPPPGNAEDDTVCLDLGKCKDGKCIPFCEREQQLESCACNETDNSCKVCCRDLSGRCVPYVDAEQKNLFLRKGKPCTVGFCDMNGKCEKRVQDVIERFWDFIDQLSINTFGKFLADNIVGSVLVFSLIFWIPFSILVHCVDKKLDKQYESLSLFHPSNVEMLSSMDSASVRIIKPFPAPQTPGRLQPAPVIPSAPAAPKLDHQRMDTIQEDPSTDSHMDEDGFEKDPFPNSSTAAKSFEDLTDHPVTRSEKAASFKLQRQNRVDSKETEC
Chain of Paired box protein Pax-8 (Q06710 whole entry): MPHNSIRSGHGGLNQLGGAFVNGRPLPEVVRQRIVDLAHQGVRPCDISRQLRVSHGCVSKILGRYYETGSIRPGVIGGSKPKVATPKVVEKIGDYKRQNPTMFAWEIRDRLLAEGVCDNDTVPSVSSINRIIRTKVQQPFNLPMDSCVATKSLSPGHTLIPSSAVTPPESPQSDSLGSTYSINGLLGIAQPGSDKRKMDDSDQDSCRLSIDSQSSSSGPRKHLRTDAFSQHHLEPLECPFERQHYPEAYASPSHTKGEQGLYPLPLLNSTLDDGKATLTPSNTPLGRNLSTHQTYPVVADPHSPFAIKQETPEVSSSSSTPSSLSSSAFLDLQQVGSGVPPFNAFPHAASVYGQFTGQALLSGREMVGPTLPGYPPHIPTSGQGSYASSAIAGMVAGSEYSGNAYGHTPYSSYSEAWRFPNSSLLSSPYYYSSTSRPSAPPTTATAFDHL

Which results are given for `CCc1noc(C)c1C(=O)OC(C)C(=O)Nc1ccc2c(c1)OCO2` (stereo not drawn)?
IC50 [1]: > 69.6 µM (inactive); IC50 [2]: > 69.6 µM (inactive)

For `C[C@H](CO)N1C[C@H](C)[C@@H](CN(C)Cc2ccc(-c3ccccc3)cc2)Oc2ccc(NC(=O)Cc3ccccc3)cc2CC1=O`, which AC50 [3] is on record?
Its AC50 is 21.3 µM (active).

What about the AC50 (Paired box protein Pax-8) of the same compound?
Its AC50 is 9.36 µM (active).

What about the AC50 [4] of the same compound?
The AC50 was 28.7 µM (active).

What does the source list for `C[C@@H]1CN([C@@H](C)CO)C(=O)c2cc(NC(=O)Nc3ccccc3)ccc2O[C@@H]1CN(C)C(=O)Nc1cccc2ccccc12`?
AC50 (HeLa): > 52 µM (inactive); AC50 [5]: 8.14 µM (active)

For `CCN(CC)CCNC1=C(Nc2ccccc2)C(=O)c2ccccc2C1=O`, which AC50 [6] is on record?
The AC50 was > 70 µM (inactive).

What about the AC50 [7] of the same compound?
The AC50 was > 70 µM (inactive).

For `CN1C(=O)c2cc(NC(=O)Cc3ccccc3)ccc2OC[C@H]2O[C@@H](CC(=O)NC3CCC3)CC[C@@H]21`, which AC50 [4] is on record?
The AC50 was 9.59 µM (active).

Which results are given for `Cc1ccc(C(=O)NC2=C(c3ccccc3)C(=O)c3ccccc3C2=O)o1`?
AC50 [6]: 21.8 µM (active); AC50 [7]: 19.1 µM (active)

For `COC(=O)C1=C(C)N(Cc2cccc(C(F)(F)F)c2)C(NCc2ccc(OC)cc2)=NC1c1ccccc1C(F)(F)F` (stereo not drawn), which IC50 [8] is on record?
The IC50 was > 96.6 µM (inactive).

For `COc1ccc(C2=C(NC(=O)c3cccc(OC)c3)C(=O)c3ccccc3C2=O)cc1`, which AC50 [6] is on record?
The AC50 was 29.5 µM (active).

And the AC50 [7]?
Its AC50 is 13.6 µM (active).

What does the source list for `COc1ccc(C2=C(NC(=O)c3ccccc3Cl)C(=O)c3ccccc3C2=O)cc1`?
AC50 [6]: 17.5 µM (active); AC50 [7]: 11.8 µM (active)

For `CCN(CC)CCOc1ccc(/C(=C(\Cl)c2ccccc2)c2ccccc2)cc1` [CLOMIPHENE], which IC50 [9] is on record?
Its IC50 is > 40 µM (inactive).
